Source: patent publication US6720346B2, “Thiazole benzamide derivatives and pharmaceutical compositions for inhibiting cell proliferation” (Agouron Pharmaceuticals, Inc., priority 2001, dated 2004)
pIC50, pKi: −log10 of the molar value. Structures can show the parent of a compound that is named as a salt.

How the values were obtained:
[1] = target: T1, CDK2/cyclin A (Homo sapiens, UniProt P24941); assay: Inhibition of CDK2/cyclin A retinoblastoma kinase activity (Ki; % inhibition); type: biochemical
T1 construct: made in house; host or cells: CDK2: insect cells (baculovirus); cyclin A: E. coli
Experimental: (§1) Cyclin-dependent kinase activity was measured by quantifying the enzyme-catalyzed, time-dependent incorporation of radioactive phosphate from [^32P]ATP or [^33P]ATP into a protein substrate. Unless noted otherwise, assays were performed in 96-well plates in a total volume of 50 μL, in the presence of 10 mM HEPES (N-[2-hydroxyethyl]piperazine-N′-[2-ethanesulfonic acid]) (pH 7.4), 10 mM MgCl2, 25 μM adenosine triphosphate (ATP), 1 mg/mL ovalbumin, 5 μg/mL leupeptin, 1 mM dithiothreitol, 10 mM β-glycerophosphate, 0.1 mM sodium vanadate, 1 mM sodium fluoride, 2.5 mM ethylene glycol-bis(β-aminoethyl ether)-N,N,N′N′-tetraacetic acid (EGTA), 2% (v/v) dimethylsulfoxide, and 0.03-0.4 μCi [^32/33P]ATP per reaction. Reactions were initiated with enzyme, incubated at 30° C., and terminated after 20 minutes by the addition of ethylenediaminetetraacetic acid (EDTA) to 250 mM. The phosphorylated substrate was then captured on a nitrocellulose or phosphocellulose membrane using a 96-well filtration manifold, and unincorporated radioactivity was removed by repeated washing with 0.85% phosphoric acid. Radioactivity was quantified by exposing the dried membranes to a phosphorimager.
(§2) Compounds from combinatorial libraries were screened from 96-well plates for % inhibition of CDK activity at 30 nM theoretical compound concentration. Inhibition was measured relative to control wells that contained all reaction components including 2% (v/v) DMSO but no compound, after subtraction of background radioactivity measured in the absence of enzyme. Apparent Ki values of discrete compounds were measured by assaying enzyme activity in the presence of different inhibitor compound concentrations and subtracting the background radioactivity measured in the absence of enzyme. The kinetic parameters (kcat, Km for ATP) were measured for each enzyme under the usual assay conditions by determining the dependence of initial rates on ATP concentration. Inhibition data were fit to an equation for competitive inhibition using Kaleidagraph (Synergy Software), or were fit to an equation for competitive tight-binding inhibition using the software KineTic (BioKin, Ltd.).
CDK2 was purified using published methodology (Rosenblatt et al., “Purification and Crystallization of Human Cyclin-dependent Kinase 2,” J. Mol. Biol., 230, 1993, pp. 1317-1319) from insect cells that had been infected with a baculovirus expression vector. […] A complex of CDK2 and proteolyzed cyclin A was prepared and purified by gel filtration. The substrate for this assay was the same Rb substrate fragment used for the CDK4 assays, and the methodology of the CDK2/delta cyclin A and the CDK4/delta cyclin D3 assays was essentially the same, except that CDK2 was present at 10 nM or 19 nM. The duration of the assay was 60 or 75 minutes, during which the time-dependence of product formation was linear and initial rate conditions were met.

[2] = target: T2, human CDK4/cyclin D3 (Homo sapiens, UniProt P11802); assay: Inhibition of CDK4/cyclin D retinoblastoma kinase activity (Ki; % inhibition); type: biochemical
T2 construct: made in house; host or cells: insect cells co-infected with baculovirus vectors
T2 sequence (P11802 whole entry): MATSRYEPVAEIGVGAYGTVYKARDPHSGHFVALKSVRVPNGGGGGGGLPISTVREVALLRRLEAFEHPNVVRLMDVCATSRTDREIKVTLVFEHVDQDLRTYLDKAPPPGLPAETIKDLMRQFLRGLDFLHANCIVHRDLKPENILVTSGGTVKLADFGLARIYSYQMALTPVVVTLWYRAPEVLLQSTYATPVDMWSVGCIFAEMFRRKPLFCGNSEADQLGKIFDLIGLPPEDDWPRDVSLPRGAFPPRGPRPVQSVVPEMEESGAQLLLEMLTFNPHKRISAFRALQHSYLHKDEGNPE
T2 sequence (P30281 1-264 partner limits assumed): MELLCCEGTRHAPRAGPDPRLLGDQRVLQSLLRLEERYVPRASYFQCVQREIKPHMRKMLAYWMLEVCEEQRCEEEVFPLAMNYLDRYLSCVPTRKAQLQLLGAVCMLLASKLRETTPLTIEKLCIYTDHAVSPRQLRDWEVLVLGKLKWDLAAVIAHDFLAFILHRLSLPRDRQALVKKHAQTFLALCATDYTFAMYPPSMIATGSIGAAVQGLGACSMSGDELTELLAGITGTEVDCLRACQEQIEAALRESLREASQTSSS
Experimental: as §1, §2
A complex of human CDK4 and genetically truncated (1-264) cyclin D3 was purified using traditional biochemical chromatographic techniques from insect cells that had been co-infected with the corresponding baculovirus expression vectors (see e.g., Meijer and Kim, “Chemical Inhibitors of Cyclin-Dependent Kinases,” Methods in Enzymol., 283 (1997), pp. 113-128.). The enzyme complex (5 nM) was assayed with 0.3-0.5 μg of purified recombinant retinoblastoma protein fragment (Rb) as a substrate. The engineered Rb fragment (residues 386-928 of the native retinoblastoma protein; 62.3 kDa) contains the majority of the phosphorylation sites found in the native 106-kDa protein, as well as a tag of six histidine residues for ease of purification. Phosphorylated Rb substrate was captured by microfiltration on a nitrocellulose membrane and quantified using a phosphorimager as described above. For measurement of tight-binding inhibitors, the assay duration was extended to 60 minutes, during which the time-dependence of product formation was linear and initial rate conditions were met.

[3] = tested on: HCT-116 cell line; assay: Inhibition of cell growth, MTT tetrazolium salt assay; type: cell-based
Experimental: Inhibition of cell growth was measured using the tetrazolium salt assay, which is based on the ability of viable cells to reduce 3-(4,5-dimethylthiazol-2-yl)-2,5-[2H]-diphenyltetrazolium bromide (MTT) to formazan (Mossman, Journal of Immunological Methods, 65, (1983), pp. 55-58). The water-insoluble purple formazan product was then detected spectrophotometrically. The HCT-116 cell line was used as a representative cancer cell line and grown in 96-well plates. Cells were plated in McCoy's 5A Medium at a volume of 135 μl/well. Plates were incubated for four hours before addition of inhibitor compounds. Different concentrations of inhibitor compounds were added in 0.5% (v/v) dimethylsulfoxide (15 μL/well), and cells were incubated at 37° C. (5% CO2) for three to five days. At the end of the incubation, MTT was added to a final concentration of 0.2 mg/mL, and cells were incubated for 4 hours more at 37° C. After centrifugation of the plates and removal of medium, the absorbance of the formazan (solubilized in dimethylsulfoxide) was measured at 540 nm. The concentration of inhibitor compound causing 50% (IC50) or 90% ([…]) inhibition of growth was determined from the linear portion of a semi-log plot of inhibitor concentration versus percent inhibition. All results were compared to control cells treated only with 0.5% (v/v) dimethylsulfoxide.

[4] = HCT-116 cells, 0.25 μM compound

CDK2 % Inhibition at 0.03 μM ([1]; 0.03 μM compound) | CDK4 % Inhibition at 0.03 μM ([2]; 0.03 μM compound) | CDK2 % Inhibition at 0.03 μM ([1]; at 0.03 μM) | CDK4 % Inhibition at 0.03 μM ([2]; at 0.03 μM) | SMILES | HCT-116 % Inhibition at 0.1 μM ([3]; HCT-116 cells, 0.1 μM compound) | HCT-116 % Inhibition at 0.25 μM [3, 4] | HCT-116 % Inhibition at 0.25 μM ([3]; HCT-116, at 0.25 μM) | further results
12% | 9% | – | – | Nc1nc(Nc2ccc(C(=O)NCCN3CCNC3=O)cc2)sc1C(=O)c1c(F)cccc1F [Example G229] | 8% | 44% | – | –
– | – | 11% | 25% | CN(C)C1CCN(C(=O)c2ccc(Nc3nc(N)c(C(=O)c4c(F)cccc4F)s3)cc2)C1 (centres unmarked) [Example G37] | – | – | – | HCT-116 % Inhibition at 0.25 μM ([3]; HCT-116, at 0.25 μM, 0.25 µM): 65%
22% | 29% | – | – | COc1ccc(CCNC(=O)c2ccc(Nc3nc(N)c(C(=O)c4c(F)cccc4F)s3)cc2)cc1OC [Example G241] | 28% | 57% | – | –
– | – | −4% | 10% | CC(C)N(Cc1ccccc1)C(=O)c1ccc(Nc2nc(N)c(C(=O)c3c(F)cccc3F)s2)cc1 [Example G70] | – | – | 53% | –
11% | 11% | – | – | Nc1nc(Nc2ccc(C(=O)NC3CCC(O)CC3)cc2)sc1C(=O)c1c(F)cccc1F (centres unmarked) [Example G346] | 15% | 52% | – | –
– | – | 5% | 8% | CCN(CC)CCN(CC)C(=O)c1ccc(Nc2nc(N)c(C(=O)c3c(F)cccc3F)s2)cc1 [Example G35] | – | – | 53% | –
– | – | −10% | 4% | CC1CN(C(=O)c2ccc(Nc3nc(N)c(C(=O)c4c(F)cccc4F)s3)cc2)CC(C)O1 (centres unmarked) [Example G18] | – | – | 41% | –
– | – | 4% | 11% | CCOC(=O)c1ccccc1NC(=O)c1ccc(Nc2nc(N)c(C(=O)c3c(F)cccc3F)s2)cc1 [Example G46] | – | – | 58% | –

More lines, now with the values behind:

SMILES | CDK2 % Inhibition at 0.03 μM ([1]; 0.03 μM compound) | CDK4 % Inhibition at 0.03 μM ([2]; 0.03 μM compound) | CDK2 % Inhibition at 0.03 μM ([1]; at 0.03 μM) | CDK4 % Inhibition at 0.03 μM ([2]; at 0.03 μM) | HCT-116 % Inhibition at 0.1 μM ([3]; HCT-116 cells, 0.1 μM compound) | HCT-116 % Inhibition at 0.25 μM [3, 4] | HCT-116 % Inhibition at 0.25 μM ([3]; HCT-116, at 0.25 μM) | further results
CC(CCCC(C)(C)O)NC(=O)c1ccc(Nc2nc(N)c(C(=O)c3c(F)cccc3F)s2)cc1 (centres unmarked) [Example G237] | 9% | 12% | – | – | 20% | 49% | – | –
CC(O)CNC(=O)c1ccc(Nc2nc(N)c(C(=O)c3c(F)cccc3F)s2)cc1 (centres unmarked) [Example G110] | – | – | 15% | 17% | – | – | 52% | HCT-116 % Inhibition at 0.1 μM ([3]; HCT-116, at 0.1 μM): 0%
CN(C(=O)c1ccc(Nc2nc(N)c(C(=O)c3c(F)cccc3F)s2)cc1)C1CCCCC1 [Example G187] | – | – | −2% | 12% | – | – | 48% | HCT-116 % Inhibition at 0.1 μM ([3]; HCT-116, at 0.1 μM): 16%
Cc1cccc(CNC(=O)c2ccc(Nc3nc(N)c(C(=O)c4c(F)cccc4F)s3)cc2)c1C [Example G294] | 30% | 29% | – | – | 15% | 74% | – | –
NC(=O)c1ccc(NC(=O)c2ccc(Nc3nc(N)c(C(=O)c4c(F)cccc4F)s3)cc2)cc1 [Example G85] | – | – | 7% | 6% | – | – | 56% | –
CN(C)CCCCCCNC(=O)c1ccc(Nc2nc(N)c(C(=O)c3c(F)cccc3F)s2)cc1 [Example G99] | – | – | −16% | 23% | – | – | 62% | HCT-116 % Inhibition at 0.1 μM ([3]; HCT-116, at 0.1 μM): 24%
CC1(C)CCC(CNC(=O)c2ccc(Nc3nc(N)c(C(=O)c4c(F)cccc4F)s3)cc2)N1 (centres unmarked) [Example A48, 4-[4-Amino-5-(2,6-difluoro-benzoyl)-thiazol-2-ylamino]-N-(5,5-dimethyl-pyrrolidin-2RS-yl-methyl)-benzamide Hydrochloride Salt] | – | – | – | – | – | – | – | pKi ([1]; apparent Ki, CDK2/cyclin A, Rb substrate): 7.26; pKi ([2]; apparent Ki, CDK4/cyclin D3, Rb substrate): 8.30; pIC50 ([3]; Homo sapiens, HCT-116, 120 h, MTT, three to five days): 6.24
CCOC(CCCNC(=O)c1ccc(Nc2nc(N)c(C(=O)c3c(F)cccc3F)s2)cc1)OCC [Example G392] | 12% | −2% | – | – | 8% | 49% | – | –
Cc1ccc(NC(=O)c2ccc(Nc3nc(N)c(C(=O)c4c(F)cccc4F)s3)cc2)c(F)c1 [Example G284] | −30% | −12% | – | – | 4% | 69% | – | –
COC(=O)c1ccccc1NC(=O)c1ccc(Nc2nc(N)c(C(=O)c3c(F)cccc3F)s2)cc1 [Example G39] | – | – | −4% | −1% | – | – | 65% | –
CC(C)NC(=O)c1ccc(Nc2nc(N)c(C(=O)c3c(F)cccc3F)s2)cc1 [Example G96] | – | – | −10% | 5% | – | – | 56% | HCT-116 % Inhibition at 0.1 μM ([3]; HCT-116, at 0.1 μM): 20%
CCOc1ccccc1CCNC(=O)c1ccc(Nc2nc(N)c(C(=O)c3c(F)cccc3F)s2)cc1 [Example G380] | −19% | 7% | – | – | 26% | 50% | – | –
CNC(=O)c1ccccc1NC(=O)c1ccc(Nc2nc(N)c(C(=O)c3c(F)cccc3F)s2)cc1 [Example G161] | – | – | 13% | 7% | – | – | 57% | HCT-116 % Inhibition at 0.1 μM ([3]; HCT-116, at 0.1 μM): 0%
Nc1nc(Nc2ccc(C(=O)NCc3ccc(Cl)cc3Cl)cc2)sc1C(=O)c1c(F)cccc1F [Example G236] | 39% | 36% | – | – | 16% | 66% | – | –
CCN(C(=O)c1ccc(Nc2nc(N)c(C(=O)c3c(F)cccc3F)s2)cc1)C1CCCCC1 [Example G312] | −10% | 5% | – | – | 8% | 58% | – | –
Nc1nc(Nc2ccc(C(=O)NCC3CCCO3)cc2)sc1C(=O)c1c(F)cccc1F (centres unmarked) [Example G116] | – | – | 7% | 24% | – | – | 46% | HCT-116 % Inhibition at 0.1 μM ([3]; HCT-116, at 0.1 μM): 0%
CN(CCCNC(=O)c1ccc(Nc2nc(N)c(C(=O)c3c(F)cccc3F)s2)cc1)c1ccccc1 [Example G363] | 27% | 16% | – | – | 24% | 63% | – | –
